Read-outs that look alike come from different tables or passages of the source.
Experiments:
[1] = test system: HCV subgenomic stable replicon GT6a; test: Stable HCV replicon luciferase assay in Huh-7 cells; assay type: cell-based, Hepatitis C virus; conditions: Hepatitis C virus, Huh-7, 0% human plasma, read-out: Mean EC50 ± SD
From the text: (§1) . Five of these nine cell lines have been described previously, including those transfected with genotypes 1a H77, 1b Con1, 3a, 4a, and 6a ([28]). The other four cell lines were established by transfecting cells with a nonchimeric genotype 2a JFH-1 replicon (GenBank accession number AB047639), two genotype 2a JFH-1 chimeric replicons containing either a genotype 2b NS3 protease domain (N-terminal 251 amino acids) or a sequence encoding full-length NS3 through the first 39 amino acids of NS5B from genotype 5a (strain SA13), and one chimeric replicon with a genotype 1b Con1 backbone containing full-length NS3 and NS4A sequences from genotype 6e. The genotype 2b and 6e NS3 sequences were each synthetically constructed based on a consensus sequence derived from the alignment of 15 genotype 2b and 4 genotype 6e sequences, respectively. All replicon constructs were bicistronic subgenomic replicons similar to those described by Bartenschlager and coworkers, and the replicon cell lines were generated by introducing these constructs into cells of an Huh-7 human hepatoma-derived cell line ([50]). The inhibitory effect of the PIs on HCV replication in replicon cells was determined in Dulbecco's modified Eagle medium containing 5% fetal bovine serum with or without 40% human plasma (Bioreclamation, Westbury, NY). The EC50s were determined using nonlinear regression curve fitting as described previously ([33]).

[2] = test system: HCV subgenomic stable replicon GT4a; test: as above; assay type: cell-based, Hepatitis C virus; conditions: Hepatitis C virus, Huh-7, 0% human plasma, read-out: Mean EC50 ± SD
From the text: as §1

HCV genotype 6a replicon = test: Transient replicon assay with engineered substitutions; assay type: cell-based, Hepatitis C virus; conditions: for EC50: Hepatitis C virus
Description: (§2) Mutagenesis was performed using a Change-IT multiple-mutation site-directed mutagenesis kit (USB, Cleveland, OH) or by cloning a synthesized DNA fragment encoding the amino acid substitution(s). The genotype 1a and 1b replicon shuttle vectors used for the introduction of the substitutions of interest in the NS3, NS5A, or NS5B gene for transient-transfection assays have been described previously ([28], [33]). The replicon shuttle vectors used for the introduction of substitutions in NS3 genes from other genotypes were similar to the stable replicon cell line constructs described above, except for the absence of the neo gene. After mutagenesis, the plasmids were linearized and RNA was transcribed and then used to transfect Huh-7 cells. Inhibition of HCV replication by the HCV inhibitors was measured by luciferase assay, as described above. Replication efficiency was calculated as a percentage of wild-type replication, as described previously ([28]).

HCV genotype 2b replicon = test: as above; assay type: cell-based, Hepatitis C virus; conditions: for EC50: Hepatitis C virus
Description: as §2

HCV genotype 2a replicon = test: as above; assay type: cell-based, Hepatitis C virus
Description: as §2

HCV genotype 1b replicon = test: as above; assay type: cell-based, Hepatitis C virus
Description: as §2

HCV genotype 3a replicon = test: as above; assay type: cell-based, Hepatitis C virus; conditions: for EC50: Hepatitis C virus
Description: as §2

HCV genotype 4d replicon = test: as above; assay type: cell-based, Hepatitis C virus; conditions: for EC50: Hepatitis C virus, 96 h
Description: as §2

HCV genotype 1a replicon = test: as above; assay type: cell-based, Hepatitis C virus
Description: as §2

HCV genotype 5a replicon = test: as above; assay type: cell-based, Hepatitis C virus
Description: as §2

HCV genotype 4a replicon = test: as above; assay type: cell-based, Hepatitis C virus; conditions: for EC50: Hepatitis C virus
Description: as §2

[3] = test system: HCV subgenomic stable replicon GT3a; test: microbe, parasite or virus in culture; assay type: cell-based, Hepatitis C virus; conditions: Hepatitis C virus, Huh-7, 0% human plasma, read-out: Mean EC50 ± SD
From the text: (§3) Five of these nine cell lines have been described previously, including those transfected with genotypes 1a H77, 1b Con1, 3a, 4a, and 6a ([28]). […] The genotype 2b and 6e NS3 sequences were each synthetically constructed based on a consensus sequence derived from the alignment of 15 genotype 2b and 4 genotype 6e sequences, respectively. All replicon constructs were bicistronic subgenomic replicons similar to those described by Bartenschlager and coworkers, and the replicon cell lines were generated by introducing these constructs into cells of an Huh-7 human hepatoma-derived cell line ([50]). The inhibitory effect of the PIs on HCV replication in replicon cells was determined in Dulbecco's modified Eagle medium containing 5% fetal bovine serum with or without 40% human plasma (Bioreclamation, Westbury, NY). The EC50s were determined using nonlinear regression curve fitting as described previously ([33]).

[4] = test system: HCV subgenomic stable replicon GT2b; test: Stable HCV replicon luciferase assay in Huh-7 cells; assay type: cell-based; conditions: Hepatitis C virus, 0% human plasma, read-out: Mean EC50 ± SD
From the text: as §3

## Cc1cnc(C(=O)N[C@H]2CCCCC/C=C\[C@@H]3C[C@@]3(C(=O)NS(=O)(=O)C3CC3)NC(=O)[C@@H]3C[C@@H](Oc4nc5ccccc5c5ccccc45)CN3C2=O)cn1 [Paritaprevir]
[1]
  EC50: 0.69 ± 0.09 nM
[2]
  EC50: 0.09 ± 0.03 nM
HCV genotype 6a replicon; 6a NS3 D168A vs wild-type replicon
  Fold change: 1,347 fold
HCV genotype 6a replicon; 6a NS3 D168H vs wild-type replicon
  Fold change: 2,490 fold
HCV genotype 6a replicon; 6a NS3 D168V vs wild-type replicon
  Fold change: 3,336 fold
HCV genotype 6a replicon; read-out: Mean EC50 ± SD, 6a NS3 D168A
  EC50: 162 ± 80 nM
HCV genotype 6a replicon; read-out: Mean EC50 ± SD, 6a NS3 D168H
  EC50: 299 ± 87 nM
HCV genotype 6a replicon; read-out: Mean EC50 ± SD, 6a NS3 D168V
  EC50: 400 ± 139 nM
HCV genotype 6a replicon; read-out: Mean EC50 ± SD, 6a wild type, transient transfection
  EC50: 0.12 ± 0.04 nM
HCV genotype 2b replicon; 2b NS3 A156T vs wild-type replicon
  Fold change: 3.0 fold
HCV genotype 2b replicon; 2b NS3 A156V vs wild-type replicon
  Fold change: 5.0 fold
HCV genotype 2b replicon; 2b NS3 D168A vs wild-type replicon
  Fold change: 11 fold
HCV genotype 2b replicon; 2b NS3 D168E vs wild-type replicon
  Fold change: 2.2 fold
HCV genotype 2b replicon; 2b NS3 D168V vs wild-type replicon
  Fold change: 9.4 fold
HCV genotype 2b replicon; read-out: Mean EC50 ± SD, 2b NS3 A156T
  EC50: 338 ± 86 nM
HCV genotype 2b replicon; read-out: Mean EC50 ± SD, 2b NS3 A156V
  EC50: 573 ± 204 nM
HCV genotype 2b replicon; read-out: Mean EC50 ± SD, 2b NS3 D168A
  EC50: 1310 nM
HCV genotype 2b replicon; read-out: Mean EC50 ± SD, 2b NS3 D168E
  EC50: 256 ± 58 nM
HCV genotype 2b replicon; read-out: Mean EC50 ± SD, 2b NS3 D168V
  EC50: 1070 nM
HCV genotype 2b replicon; read-out: Mean EC50 ± SD, 2b wild type, transient transfection
  EC50: 114 ± 24 nM
HCV genotype 2a replicon; 2a NS3 A156T vs wild-type replicon
  Fold change: 1.7 fold
HCV genotype 2a replicon; 2a NS3 A156V vs wild-type replicon
  Fold change: 2.2 fold
HCV genotype 2a replicon; 2a NS3 D168A vs wild-type replicon
  Fold change: 18 fold
HCV genotype 2a replicon; 2a NS3 D168E vs wild-type replicon
  Fold change: 5.3 fold
HCV genotype 2a replicon; 2a NS3 D168V vs wild-type replicon
  Fold change: 13 fold
HCV genotype 1b replicon; 1b NS3 A156T vs wild-type replicon
  Fold change: 7.4 fold
HCV genotype 1b replicon; 1b NS3 A156V vs wild-type replicon
  Fold change: 21 fold
HCV genotype 1b replicon; 1b NS3 D168A vs wild-type replicon
  Fold change: 27 fold
HCV genotype 1b replicon; 1b NS3 D168E vs wild-type replicon
  Fold change: 4.4 fold
HCV genotype 1b replicon; 1b NS3 D168V vs wild-type replicon
  Fold change: 159 fold
HCV genotype 1b replicon; 1b NS3 R155K vs wild-type replicon
  Fold change: 40 fold
HCV genotype 1b replicon; 1b NS3 T54A vs wild-type replicon
  Fold change: 0.8 fold
HCV genotype 1b replicon; 1b NS3 V55A vs wild-type replicon
  Fold change: 0.6 fold
HCV genotype 1b replicon; 1b NS3 V170A vs wild-type replicon
  Fold change: 0.8 fold
HCV genotype 3a replicon; 3a NS3 A156G vs wild-type replicon
  Fold change: 57 fold
HCV genotype 3a replicon; 3a NS3 Q168R vs wild-type replicon
  Fold change: 29 fold
HCV genotype 3a replicon; 3a NS3 R155K vs wild-type replicon
  Fold change: 5.2 fold
HCV genotype 3a replicon; read-out: Mean EC50 ± SD, 3a NS3 A156G
  EC50: 1770 nM
HCV genotype 3a replicon; read-out: Mean EC50 ± SD, 3a NS3 Q168R
  EC50: 912 ± 221 nM
HCV genotype 3a replicon; read-out: Mean EC50 ± SD, 3a NS3 R155K
  EC50: 161 ± 20 nM
HCV genotype 3a replicon; read-out: Mean EC50 ± SD, 3a wild type, transient transfection
  EC50: 31 ± 7 nM
HCV genotype 4d replicon; 4d NS3 D168V vs wild-type replicon
  Fold change: 312 fold
HCV genotype 4d replicon; read-out: Mean EC50 ± SD, 4d NS3 D168V
  EC50: 4.7 ± 0.91 nM
HCV genotype 4d replicon; read-out: Mean EC50 ± SD, 4d wild type, transient transfection
  EC50: 0.015 ± 0.001 nM
HCV genotype 1a replicon; 1a NS3 A156T vs wild-type replicon
  Fold change: 17 fold
HCV genotype 1a replicon; 1a NS3 D168A vs wild-type replicon
  Fold change: 50 fold
HCV genotype 1a replicon; 1a NS3 D168E vs wild-type replicon
  Fold change: 14 fold
HCV genotype 1a replicon; 1a NS3 D168V vs wild-type replicon
  Fold change: 96 fold
HCV genotype 1a replicon; 1a NS3 F43L vs wild-type replicon
  Fold change: 20 fold
HCV genotype 1a replicon; 1a NS3 Q80K vs wild-type replicon
  Fold change: 2.8 fold
HCV genotype 1a replicon; 1a NS3 R155K vs wild-type replicon
  Fold change: 37 fold
HCV genotype 1a replicon; 1a NS3 T54S vs wild-type replicon
  Fold change: 0.4 fold
HCV genotype 1a replicon; 1a NS3 V36M vs wild-type replicon
  Fold change: 2.1 fold
HCV genotype 1a replicon; 1a NS3 V55I vs wild-type replicon
  Fold change: 1.0 fold
HCV genotype 1a replicon; 1a NS3 Y56H vs wild-type replicon
  Fold change: 2.9 fold
HCV genotype 5a replicon; 5a NS3 D168E vs wild-type replicon
  Fold change: 23 fold
HCV genotype 5a replicon; 5a NS3 D168H vs wild-type replicon
  Fold change: 558 fold
HCV genotype 4a replicon; 4a NS3 A156T vs wild-type replicon
  Fold change: 40 fold
HCV genotype 4a replicon; 4a NS3 A156V vs wild-type replicon
  Fold change: 155 fold
HCV genotype 4a replicon; 4a NS3 D168H vs wild-type replicon
  Fold change: 252 fold
HCV genotype 4a replicon; 4a NS3 D168V vs wild-type replicon
  Fold change: 323 fold
HCV genotype 4a replicon; 4a NS3 R155C vs wild-type replicon
  Fold change: 59 fold
HCV genotype 4a replicon; read-out: Mean EC50 ± SD, 4a NS3 A156T
  EC50: 1.9 ± 0.25 nM
HCV genotype 4a replicon; read-out: Mean EC50 ± SD, 4a NS3 A156V
  EC50: 7.4 ± 1.6 nM
HCV genotype 4a replicon; read-out: Mean EC50 ± SD, 4a NS3 D168H
  EC50: 12 ± 3 nM
HCV genotype 4a replicon; read-out: Mean EC50 ± SD, 4a NS3 D168V
  EC50: 16 ± 1.9 nM
HCV genotype 4a replicon; read-out: Mean EC50 ± SD, 4a NS3 R155C
  EC50: 2.8 ± 0.25 nM
HCV genotype 4a replicon; read-out: Mean EC50 ± SD, 4a wild type, transient transfection
  EC50: 0.048 ± 0.01 nM
[3]
  EC50: 19 ± 5.2 nM
[4]
  EC50: 107 ± 17 nM
